Measurements as given in PMC11270571 (ACS Omega, 2024).
“Also recorded” adds a separate entry of the source.

Assays:
human BuChE = human BuChE (Homo sapiens, UniProt P06276); assay: biochemical; conditions: for inhibition at 100 µM / inhibition at 1000 µM: read-out: human BuChE inhibition%
human AChE = human AChE (Homo sapiens, UniProt P22303); assay: AChE inhibition, modified Ellman spectrophotometric method; assay type: biochemical; conditions: for inhibition at 100 µM / inhibition at 1000 µM / inhibition at 0.001 µM / inhibition at 0.01 µM / inhibition at 0.1 µM / inhibition at 1 µM / inhibition at 10 µM: read-out: human AChE inhibition %
Sequence of human AChE (P22303 32-614): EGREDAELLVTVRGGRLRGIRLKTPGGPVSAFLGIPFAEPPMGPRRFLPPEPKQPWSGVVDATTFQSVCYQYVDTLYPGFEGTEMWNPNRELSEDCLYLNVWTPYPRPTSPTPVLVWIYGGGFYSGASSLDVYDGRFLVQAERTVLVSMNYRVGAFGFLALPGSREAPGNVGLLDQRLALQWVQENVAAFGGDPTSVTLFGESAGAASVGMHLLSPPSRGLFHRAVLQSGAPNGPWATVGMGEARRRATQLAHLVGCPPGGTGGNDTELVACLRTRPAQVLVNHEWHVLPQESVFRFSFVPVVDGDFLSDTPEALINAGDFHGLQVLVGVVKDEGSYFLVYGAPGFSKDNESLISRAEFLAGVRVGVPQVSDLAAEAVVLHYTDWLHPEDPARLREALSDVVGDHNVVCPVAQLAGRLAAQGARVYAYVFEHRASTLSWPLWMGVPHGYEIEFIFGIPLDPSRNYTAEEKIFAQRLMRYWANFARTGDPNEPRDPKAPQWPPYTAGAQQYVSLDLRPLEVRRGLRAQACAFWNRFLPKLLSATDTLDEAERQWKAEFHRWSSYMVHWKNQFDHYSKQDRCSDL

[1] = In vitro BBB permeability assay; assay type: in vitro ADME; conditions: PAMPA; for type of BBB permeation: class by Pe

Sequence of human BuChE (P06276 29-602): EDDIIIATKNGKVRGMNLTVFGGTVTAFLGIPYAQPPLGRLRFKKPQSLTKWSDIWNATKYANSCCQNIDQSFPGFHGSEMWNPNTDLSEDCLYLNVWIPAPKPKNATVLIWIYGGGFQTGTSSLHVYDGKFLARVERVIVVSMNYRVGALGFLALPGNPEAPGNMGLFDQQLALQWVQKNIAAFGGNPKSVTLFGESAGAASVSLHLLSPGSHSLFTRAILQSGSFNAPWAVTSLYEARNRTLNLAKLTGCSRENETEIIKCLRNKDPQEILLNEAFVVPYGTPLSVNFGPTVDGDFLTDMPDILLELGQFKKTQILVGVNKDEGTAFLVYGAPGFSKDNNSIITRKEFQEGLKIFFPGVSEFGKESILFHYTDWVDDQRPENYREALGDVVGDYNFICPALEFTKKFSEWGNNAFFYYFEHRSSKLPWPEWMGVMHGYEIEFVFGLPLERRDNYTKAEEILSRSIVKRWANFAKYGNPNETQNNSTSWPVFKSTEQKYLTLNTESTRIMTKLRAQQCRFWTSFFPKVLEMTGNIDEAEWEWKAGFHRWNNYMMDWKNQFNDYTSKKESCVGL

Structure (SMILES) | IC50 (human BuChE) [µM] | inhibition at 100 µM (human BuChE) [%] | inhibition at 1000 µM (human BuChE) [%] | IC50 (human AChE) [µM] | inhibition at 100 µM (human AChE) [%] | inhibition at 1000 µM (human AChE) [%] | inhibition at 0.001 µM (human AChE) [%] | inhibition at 0.01 µM (human AChE) [%] | inhibition at 0.1 µM (human AChE) [%] | inhibition at 1 µM (human AChE) [%] | inhibition at 10 µM (human AChE) [%] | BBB permeability (in words) [1] | type of BBB permeation [1]
Cc1ccc(N2N=C(c3ccsc3)CC2c2ccc(N3CCOCC3)cc2)cc1 (centres unmarked) [Compound 2c, 1-(4-Methylphenyl)-3-(thiophen-3-yl)-5-[4-(4-morpholinyl)phenyl]-2-pyrazoline] | > 1000 | 20.6 ± 0.82 | 29.3 ± 0.99 | > 100 | 38.7 ± 1.34 | 73.6 ± 2.06 | – | – | – | – | – | – | –
c1ccc(N2N=C(c3ccsc3)CC2c2ccc(N3CCOCC3)cc2)cc1 (centres unmarked) [Compound 2a, 1-Phenyl-3-(thiophen-3-yl)-5-[4-(4-morpholinyl)phenyl]-2-pyrazoline] | > 1000 | 18.1 ± 0.76 | 31.1 ± 0.84 | 0.107 ± 0.0048 | 88.6 ± 2.06 | 91.4 ± 2.46 | 14.7 ± 0.66 | 20.3 ± 0.99 | 49.7 ± 1.74 | 82.5 ± 1.91 | 84.8 ± 1.8 | high BBB permeability | CNS+ high BBB permeation (high BBB permeation Pe (10^–6 cm s^–1) > 4.0)
Clc1cccc(N2N=C(c3ccsc3)CC2c2ccc(N3CCOCC3)cc2)c1 (centres unmarked) [Compound 2j, 1-(3-Chlorophenyl)-3-(thiophen-3-yl)-5-[4-(4-morpholinyl)phenyl]-2-pyrazoline] | > 1000 | 24.9 ± 0.97 | 34.3 ± 1.55 | 0.062 ± 0.003 | 89.5 ± 1.85 | 93.1 ± 2.85 | 19 ± 0.63 | 36.2 ± 0.98 | 60.8 ± 1.64 | 72 ± 1.78 | 80.2 ± 2.16 | – | CNS ± uncertain BBB permeation
O=[N+]([O-])c1cccc(N2N=C(c3ccsc3)CC2c2ccc(N3CCOCC3)cc2)c1 (centres unmarked) [Compound 2l, 1-(3-Nitrophenyl)-3-(thiophen-3-yl)-5-[4-(4-morpholinyl)phenyl]-2-pyrazoline] | > 1000 | 19.3 ± 0.82 | 30.5 ± 0.97 | 0.04 ± 0.0019 | 91.7 ± 1.92 | 95.3 ± 2.03 | 19.3 ± 0.75 | 42.2 ± 1.52 | 64.6 ± 1.85 | 75.4 ± 1.03 | 82.6 ± 1.51 | high blood–brain barrier permeability; also recorded: high BBB permeability | CNS+ high BBB permeation (high BBB permeation Pe (10^–6 cm s^–1) > 4.0)
Brc1ccc(N2N=C(c3ccsc3)CC2c2ccc(N3CCOCC3)cc2)cc1 (centres unmarked) [Compound 2h, 1-(4-Bromophenyl)-3-(thiophen-3-yl)-5-[4-(4-morpholinyl)phenyl]-2-pyrazoline] | > 1000 | 26.2 ± 1.25 | 40.8 ± 1.94 | > 1000 | 20.9 ± 0.83 | 46.5 ± 1.94 | – | – | – | – | – | – | –
Fc1ccc(N2N=C(c3ccsc3)CC2c2ccc(N3CCOCC3)cc2)cc1 (centres unmarked) [Compound 2f, 1-(4-Fluorophenyl)-3-(thiophen-3-yl)-5-[4-(4-morpholinyl)phenyl]-2-pyrazoline] | > 1000 | 21.9 ± 0.89 | 31.5 ± 1.15 | > 100 | 45.4 ± 1.99 | 71.4 ± 2.46 | – | – | – | – | – | – | –
O=C(C=Cc1ccc(N2CCOCC2)cc1)c1ccsc1 [Compound 1, 3-(4-Morpholinophenyl)-1-(thiophen-3-yl)prop-2-en-1-one] | > 1000 | 21.3 ± 0.84 | 46.6 ± 0.92 | > 100 | 41.1 ± 1.87 | 78.3 ± 2.1 | – | – | – | – | – | – | –
N#Cc1ccc(N2N=C(c3ccsc3)CC2c2ccc(N3CCOCC3)cc2)cc1 (centres unmarked) [Compound 2e, 1-(4-Cyanophenyl)-3-(thiophen-3-yl)-5-[4-(4-morpholinyl)phenyl]-2-pyrazoline] | > 1000 | 23.4 ± 1.06 | 38.9 ± 1.22 | > 100 | 47.6 ± 1.85 | 81.2 ± 1.91 | – | – | – | – | – | – | –
Brc1cccc(N2N=C(c3ccsc3)CC2c2ccc(N3CCOCC3)cc2)c1 (centres unmarked) [Compound 2k, 1-(3-Bromophenyl)-3-(thiophen-3-yl)-5-[4-(4-morpholinyl)phenyl]-2-pyrazoline] | > 1000 | 17.6 ± 0.81 | 29 ± 1.09 | > 1000 | 30.3 ± 1.03 | 45.8 ± 1.72 | – | – | – | – | – | – | –
Fc1cccc(N2N=C(c3ccsc3)CC2c2ccc(N3CCOCC3)cc2)c1 (centres unmarked) [Compound 2i, 1-(3-Fluorophenyl)-3-(thiophen-3-yl)-5-[4-(4-morpholinyl)phenyl]-2-pyrazoline] | > 1000 | 27.4 ± 1.38 | 36.2 ± 1.42 | > 100 | 37.6 ± 1.51 | 68.3 ± 2.15 | – | – | – | – | – | – | –
COc1ccc(N2N=C(c3ccsc3)CC2c2ccc(N3CCOCC3)cc2)cc1 (centres unmarked) [Compound 2d, 1-(4-Methoxyphenyl)-3-(thiophen-3-yl)-5-[4-(4-morpholinyl)phenyl]-2-pyrazoline] | > 1000 | 21.1 ± 0.86 | 33.1 ± 0.99 | > 100 | 44.2 ± 1.24 | 84.5 ± 2.36 | – | – | – | – | – | – | –
Clc1ccc(N2N=C(c3ccsc3)CC2c2ccc(N3CCOCC3)cc2)cc1 (centres unmarked) [Compound 2g, 1-(4-Chlorophenyl)-3-(thiophen-3-yl)-5-[4-(4-morpholinyl)phenyl]-2-pyrazoline] | > 1000 | 20.8 ± 0.93 | 25 ± 0.96 | 0.122 ± 0.0051 | 86.6 ± 2.56 | 90.7 ± 1.15 | 15.6 ± 0.73 | 23.1 ± 1.06 | 47.9 ± 0.96 | 79.5 ± 1.57 | 82.4 ± 2.17 | – | CNS ± uncertain BBB permeation
CS(=O)(=O)c1ccc(N2N=C(c3ccsc3)CC2c2ccc(N3CCOCC3)cc2)cc1 (centres unmarked) [Compound 2b, 1-(4-Methylsulfonylphenyl)-3-(thiophen-3-yl)-5-[4-(4-morpholinyl)phenyl]-2-pyrazoline] | > 1000 | 15.1 ± 0.78 | 26.4 ± 0.75 | > 1000 | 23.1 ± 0.95 | 40.6 ± 1.76 | – | – | – | – | – | – | –
